The values below come from US11434241B2, “Pyrimidine derivatives for prevention and treatment of bacterial infections” (UNIVERSITE DE LIEGE, priority 2018, dated 2022).

Experiment [1] has as its system S. aureus ATCC 25904. Nature of the experiment: MIC determination on S. aureus ATCC 25904. It is filed as cell-based. The note with it: Staphylococcus aureus, ATCC25904, read-out: MIC S. aureus ATCC25904. How it is done: Further experiments are conducted using different strains of S. aureus, as clinically relevant Gram-positive bacterial strains: S. aureus ATCC 25904, methicillin-resistant S. aureus (MRSA) ATCC BAA-1556, Glycopeptide intermediate-resistant (GISA) S. aureus Mu-50 (ATCC 700695) in order to determine the Minimal Inhibitory Concentration (MIC) which is the minimal concentration required to prevent bacterial growth. The bioluminescent strain S. aureus Xen29 (ATCC 12600) was also used. This strain is derived from the parental strain S. aureus ATCC 12600, a pleural fluid isolate, which is also designated as NCTC8532.
A single colony selected from the different strains of S. aureus is resuspended and cultured in brain heart infusion (BHI) broth overnight (O/N) in aerobic conditions (37° C. with 220 rpm shaking), next day a 1:100 inoculum in Mueller-Hinton broth (MHB) is incubated in aerobic conditions for 3 hr (=OD0.08-0.1) and an inoculum of 1:300 dilution, corresponding to 3×10^5 CFU/ml, is incubated in presence or absence of different concentrations of the tested molecules in 1% DMSO. After O/N growth the OD of each culture was measured at 600 nm (OD600) in a spectrophotometer (Victor 3-Perkin Elmer). The MIC represents the concentration at which there is no visible growth of bacteria, i.e. ΔOD at 600 nm equal to zero (blank is the medium alone). […] The MIC of molecule 2329 against Glycopeptide intermediate-resistant (GISA) S. aureus Mu-50 (ATCC 700695) is in between 25 and 30 μM, while it is above 50 μM for molecules 2348, 2412, and 2452.

Experiment [2] has as its system vancomycin-resistant (VRE) E. faecalis ATCC BAA-2365. Put plainly: MIC determination on vancomycin-resistant E. faecalis. Format: cell-based, Enterococcus faecalis. The note with it: Mueller-Hinton broth (MHB). How it is done: Further experiments were conducted using the clinically relevant Gram-positive bacterial strain of vancomycin-resistant (VRE) E. faecalis ATCC BAA-2365, in order to determine the Minimal Inhibitory Concentration (MIC) which is the minimal concentration required to prevent bacterial growth.
A single colony selected from E. faecalis VRE is resuspended and cultured in the brain heart infusion (BHI) broth overnight (O/N) in aerobic conditions (37° C. with 220 rpm shaking), next day a 1:100 inoculum in Mueller-Hinton broth (MHB) is incubated in aerobic conditions for 3 hr (OD=0.08-0.1) and an inoculum of 1:300 dilution, corresponding to 3×10^5 CFU/ml, is incubated in presence or absence of different concentrations of the tested molecules in 1% DMSO. After O/N growth the OD of each culture is measured at 600 nm (OD600) in a spectrophotometer (Victor 3-Perkin Elmer). The MIC represents the concentration at which there is no visible growth of bacteria, i.e. ΔOD at 600 nm equal to zero (blank is the medium alone).

Experiment [3] concerns MRSA. Put plainly: Minimal Bactericidal Concentration (MBC) for MRSA. It is filed as cell-based, Staphylococcus aureus. The following applies: for MBC: Staphylococcus aureus, MRSA, 99.9% of initial inoculum killed over 24 hours. How it is done:
We have determined the Minimal Bactericidal Concentration (MBC) of the pyrazolopyrimidine molecule 2666 for the MRSA strain and the MBC of the purine molecules 2329 and 2833 for MRSA and the MRSE strain respectively.
To determine the MBC, bacteria were grown as per MIC determination in presence of the pyrazolopyrimidine molecule 2666 for MRSA or in presence of the purine molecule 2833 for MRSE or 2329 for MRSA. At 24 hours bacteria were plated on TSB agar plates by the broth microdilution method, and colonies formed on the plates were counted next day.
The MBC represents the lowest concentration at which 99.9% bacteria of the initial inoculum are killed over 24 hours.

The subject of experiment [4] is S. epidermidis (ATCC 35984) 24h-mature biofilm. Nature of the experiment: S. epidermidis 24h-mature biofilm, crystal violet biomass. It is filed as cell-based, Staphylococcus epidermidis. The note with it: 80 μM; 24 h treatment of 24-hour mature biofilm. How it is done:
In another experiment we let adhere 0.5×10^8 CFU/ml S. epidermidis cells for 4 hr and let the biofilm form for additional 24 hr in presence of 0.25% glucose, at this point we treated the biofilm with different concentrations of molecule 2329 for 24 h in TSB with 0.25% glucose and determined the biofilm biomass using the crystal violet staining.
For biofilm analysis, we first washed the biofilm 3 times with NaCl 0.9% to eliminate all planktonic bacteria, before incubation with a staining Crystal Violet 1% solution in distilled H2O (dH2O).
Wells are washed 3 times with dH2O to eliminate unbound crystal violet. 400 μl Acetic Acid 10% is then added and incubated at RT for 10 min. Absorbance is measured in triplicate at 570 nm, reflecting total biomass of the biofilm.

Structures are written as SMILES. In brackets after ≈: the same amount, converted by molar mass.

In the case of `C#CCn1cnc2c(N[C@@H]3C[C@H]3c3ccc(F)c(F)c3)nc(SCCC)nc21` [Molecule 2452, N-((1R,2S)-2-(3,4-difluorophenyl)cyclopropyl)-9-(prop-2-yn-1-yl)-2-(propylthio)-9H-purin-6-amine], the values for the minimal inhibitory concentration (MIC) in experiment [1] and in experiment [2] were 20 to 25 µM (≈ 7.99 to 9.99 µg/mL) and over 50 µM, respectively.
Turning to `C=CCn1cnc2c(N[C@@H]3C[C@H]3c3ccc(F)c(F)c3)nc(SCCC)nc21` [Molecule 2412, 9-allyl-N-((1R,2S)-2-(3,4-difluorophenyl)cyclopropyl)-2-(propylthio)-9H-purin-6-amine], the minimal inhibitory concentration (MIC) in experiment [1] is 20 to 25 µM (≈ 8.03 to 10 µg/mL); in experiment [2] it was over 50 µM.
As for `CCCSc1nc(N[C@@H]2C[C@H]2c2ccc(F)c(F)c2)c2ncn(CC)c2n1` [Molecule 2348, N-((1R,2S)-2-(3,4-difluorophenyl)cyclopropyl)-9-ethyl-2-(propylthio)-9H-purin-6-amine], the MIC in experiment [1] was 20 to 25 µM (≈ 7.79 to 9.74 µg/mL); in experiment [2], over 50 µM.
With `CCCSc1nc(N[C@@H]2C[C@H]2c2ccc(F)c(F)c2)c2ncn(C)c2n1` [Molecule 2329, N-((1R,2S)-2-(3,4-difluorophenyl)cyclopropyl)-9-methyl-2-(propylthio)-9H-purin-6-amine], in experiment [3], the “MBC relative to MIC, MRSA” value is “around 2 times” and the minimal bactericidal concentration (MBC) turned out to be 40 µM (≈ 15 µg/mL). In experiment [4], the “mature biofilm biomass (crystal violet, absorbance 570 nm)” value is given as “could reduce”. For the same compound, the MIC in experiment [1] was in the range of 20 to 25 µM (≈ 7.51 to 9.39 µg/mL). Moreover, in experiment [2], it took 25 µM (≈ 9.39 µg/mL) to inhibit growth (MIC).
On to `CCSc1nc(N[C@@H]2C[C@H]2c2ccc(F)c(F)c2)c2cnn(C)c2n1.Cl` [Molecule 2666, N-((1R,2S)-2-(3,4-difluorophenyl)cyclopropyl)-6-(ethylthio)-1-methyl-1H-pyrazolo[3,4-d]pyrimidin-4-amine hydrochloride], for which, in experiment [3], the “MBC relative to MIC, MRSA” value is on record as “around 2 times” and the minimum bactericidal concentration (MBC) stood at 40 µM.

A word on the MIC: it is the lowest concentration found to suppress growth. Usually MBC stands for the lowest tested concentration that kills the bacteria rather than only halting them. Lower therefore signals greater bactericidal potency.
